Test results published in ChEMBL document CHEMBL1201862, “PubChem BioAssay data set” (2004).
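Protocol summary: plate cells (96-well), add compound at 5 concentrations, incubate 48 h, interpolate endpoints linearly. Here, GI50 denotes the concentration required for 50% inhibition of growth.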 Activity calls are given as the source filed them. Rule as the data show it: active = GI50 up to about 1.1 µM and inactive = higher. Peptide text beside a SMILES is read from it. * marks the point of attachment. Trt = c1ccc(C(c2ccccc2)(c2ccccc2)*)cc1; Cbz = O=C(OCc1ccccc1)*

Columns and labels:
Assay in all cases: NCI anticancer screen, dose series, 48 h
UACC-257 = system: UACC-257
NCI-H226 = system: NCI-H226
SF-539 = system: SF-539
OVCAR-4 = system: OVCAR-4
SN12C = system: SN12C
MOLT-4 = system: MOLT-4
NCI-H522 = system: NCI-H522
SW-620 = system: SW-620
OVCAR-3 = system: OVCAR-3
U-251 = system: U-251
RPMI-8226 = system: RPMI-8226
IGROV-1 = system: IGROV-1
T47D = system: T47D
SF-295 = system: SF-295
M14 = system: M14
Hs-578T = system: Hs-578T
MDA-MB-231 = system: MDA-MB-231
SK-MEL-28 = system: SK-MEL-28
NCI/ADR-RES = system: NCI/ADR-RES
A498 = system: A498

| SMILES | GI50 (UACC-257) | GI50 (NCI-H226) | GI50 (SF-539) | GI50 (OVCAR-4) | GI50 (SN12C) | GI50 (MOLT-4) | GI50 (NCI-H522) | GI50 (SW-620) | GI50 (OVCAR-3) | GI50 (U-251) | GI50 (RPMI-8226) | GI50 (IGROV-1) | GI50 (T47D) | GI50 (SF-295) | GI50 (M14) | GI50 (Hs-578T) | GI50 (MDA-MB-231) | GI50 (SK-MEL-28) | GI50 (NCI/ADR-RES) | GI50 (A498) |
| --- | --- | --- | --- | --- | --- | --- | --- | --- | --- | --- | --- | --- | --- | --- | --- | --- | --- | --- | --- | --- |
| O=C(c1ccccc1)c1c(C(F)(F)F)[n+]([O-])c2cc(Cl)c(Cl)cc2[n+]1[O-] | 0.243 µM (active) | 3.02 µM (inactive) | 1.5 µM (inactive) | 1.56 µM (inactive) | 0.658 µM (active) | 0.643 µM (active) | 0.557 µM (active) | 0.619 µM (active) | 0.403 µM (active) | 1.23 µM (inactive) | 0.373 µM (active) | 0.473 µM (active) | 1.45 µM (inactive) | 3.21 µM (inactive) | 0.968 µM (active) | 0.849 µM (active) | 0.229 µM (active) | 2.86 µM (inactive) | 2.21 µM (inactive) |  |
| COc1ccc(-c2cc(-c3ccc(Nc4ccnc5cc(C(F)(F)F)ccc45)cc3)nc(N)c2C#N)c2ccccc12 |  |  | > 100 µM (inactive) | > 100 µM (inactive) |  | 53.3 µM (inactive) |  | > 100 µM (inactive) | > 100 µM (inactive) | > 100 µM (inactive) | > 100 µM (inactive) |  | > 100 µM (inactive) | > 100 µM (inactive) | > 100 µM (inactive) | 65.2 µM (inactive) | > 100 µM (inactive) |  | > 100 µM (inactive) | > 100 µM (inactive) |
| COc1ccc(N(C)S(=O)(=O)c2ccccc2)cc1 | > 100 µM (inactive) | > 100 µM (inactive) | > 100 µM (inactive) | > 100 µM (inactive) | > 100 µM (inactive) | 29.4 µM (inactive) | > 100 µM (inactive) | > 100 µM (inactive) | > 100 µM (inactive) | > 100 µM (inactive) | 86.9 µM (inactive) | > 100 µM (inactive) | 53.1 µM (inactive) | > 100 µM (inactive) | > 100 µM (inactive) | > 100 µM (inactive) | > 100 µM (inactive) | > 100 µM (inactive) | > 100 µM (inactive) |  |
| CCOC(=O)N(C)C(=C(F)F)C(F)(F)F | 31.5 µM (inactive) | 19.2 µM (inactive) | 24.5 µM (inactive) | 28 µM (inactive) | > 10 µM (inactive) | 21.7 µM (inactive) |  | 21.2 µM (inactive) | 36 µM (inactive) | 30.4 µM (inactive) | 16.4 µM (inactive) | 21.2 µM (inactive) | 26.8 µM (inactive) | 57.5 µM (inactive) | 16.8 µM (inactive) | 30.4 µM (inactive) | 28.5 µM (inactive) | 20 µM (inactive) | 34.6 µM (inactive) |  |
| CCOc1ccc(C(=O)/C=C2/Nc3ccccc3N/C2=C/C(=O)c2ccc(OCC)cc2)cc1 | > 100 µM (inactive) | > 100 µM (inactive) | > 100 µM (inactive) | 72.3 µM (inactive) | > 100 µM (inactive) | 81.3 µM (inactive) | > 100 µM (inactive) | > 100 µM (inactive) | > 100 µM (inactive) | > 100 µM (inactive) | > 100 µM (inactive) | 57.9 µM (inactive) | > 100 µM (inactive) | > 100 µM (inactive) | > 100 µM (inactive) | 37.6 µM (inactive) | > 100 µM (inactive) | > 100 µM (inactive) |  | > 100 µM (inactive) |
| OC(CCN1CCN(CCOC(c2ccccc2)c2ccccc2)CC1)c1ccccc1 (stereo unspecified) | 17.9 µM (inactive) | 27.9 µM (inactive) | 20.1 µM (inactive) | 30.1 µM (inactive) | 29.1 µM (inactive) |  | 17.4 µM (inactive) | 31.1 µM (inactive) | 25.6 µM (inactive) | 16.3 µM (inactive) |  | 23.1 µM (inactive) | 17.2 µM (inactive) | 20.1 µM (inactive) | 18.1 µM (inactive) | 21.1 µM (inactive) | 15.9 µM (inactive) | 17.9 µM (inactive) | 21.5 µM (inactive) | 2.4 µM (inactive) |
| Cc1ccc(S(=O)(=O)N2CCSCCN(S(=O)(=O)c3ccc(C)cc3)CCN(S(=O)(=O)c3ccc(C)cc3)CC2)cc1 |  | > 100 µM (inactive) | 17.6 µM (inactive) | > 100 µM (inactive) | > 100 µM (inactive) | > 100 µM (inactive) |  | > 100 µM (inactive) | > 100 µM (inactive) | 20 µM (inactive) | > 100 µM (inactive) | 56.2 µM (inactive) | 8.75 µM (inactive) | 26.4 µM (inactive) | > 100 µM (inactive) | 25.7 µM (inactive) | 17.4 µM (inactive) | > 100 µM (inactive) | > 100 µM (inactive) | 69.7 µM (inactive) |
| COC1CC(OC2C(C)OC(OC3C(C)OC(OC4C(O)CC(O[C@H]5CC[C@@]6(C)C(=CC[C@]7(O)[C@@H]6C[C@@H](OC(=O)/C=C/c6ccccc6)[C@@]6(C)[C@]7(O)CC[C@@]6(O)C(C)=O)C5)OC4C)CC3OC)CC2OC)OC(C)C1O (stereo partly specified) | > 6.25 µM (inactive) | > 6.25 µM (inactive) | > 6.25 µM (inactive) | > 6.25 µM (inactive) | > 6.25 µM (inactive) | > 6.25 µM (inactive) | > 6.25 µM (inactive) | > 6.25 µM (inactive) | > 6.25 µM (inactive) | > 6.25 µM (inactive) | > 6.25 µM (inactive) | > 6.25 µM (inactive) | > 6.25 µM (inactive) | > 6.25 µM (inactive) | > 6.25 µM (inactive) | > 6.25 µM (inactive) | > 6.25 µM (inactive) |  | > 6.25 µM (inactive) |  |
| COC1CCC(=O)N1CN(C(C)=O)c1ccc(C)cc1 (stereo unspecified) | > 100 µM (inactive) | > 100 µM (inactive) | > 100 µM (inactive) | > 100 µM (inactive) | > 100 µM (inactive) | > 100 µM (inactive) |  | > 100 µM (inactive) | > 100 µM (inactive) | > 100 µM (inactive) | > 100 µM (inactive) |  | > 100 µM (inactive) | > 100 µM (inactive) | > 100 µM (inactive) | > 100 µM (inactive) | > 100 µM (inactive) | > 100 µM (inactive) | > 100 µM (inactive) | > 10 µM (inactive) |
| CC(CC(=O)N1C2CC3CCC2(CS1(=O)=O)C3(C)C)[Si](C)(C)C (stereo unspecified) | > 100 µM (inactive) | > 100 µM (inactive) | > 100 µM (inactive) |  | > 100 µM (inactive) | > 100 µM (inactive) | > 100 µM (inactive) | > 100 µM (inactive) | > 100 µM (inactive) | > 100 µM (inactive) | > 100 µM (inactive) | > 100 µM (inactive) | > 100 µM (inactive) | > 100 µM (inactive) | > 100 µM (inactive) | > 100 µM (inactive) | > 100 µM (inactive) | > 100 µM (inactive) | > 100 µM (inactive) |  |
| C=C1C(C[C@@H]2O[C@H]3C[C@H]4O[C@@]5(C[C@@H]6O[C@]7(C[C@H](C)[C@@H]8O[C@@H]9CC(C(O)CO)O[C@@H]9C[C@@H]8O7)C[C@H](C)[C@@H]6O5)C[C@H]4O[C@H]3[C@H](C)[C@H]2O)O[C@@H](CC[C@@H]2O[C@@H](CC[C@@]34CC5O[C@H]6C(O[C@H]7CC[C@H](CC(=O)OC)O[C@@H]7[C@@H]6O3)[C@H]5O4)CC2=C)C[C@H]1C (stereo partly specified) | < 0.0001 µM (active) | 0.000174 µM (active) |  | 0.998 µM (active) | 0.000211 µM (active) | 0.000146 µM (active) | < 0.0001 µM (active) | < 0.0001 µM (active) | < 0.0001 µM (active) | < 0.0001 µM (active) | < 0.0001 µM (active) | < 0.0001 µM (active) | 0.01 µM (active) | < 0.0001 µM (active) | 0.000124 µM (active) | < 0.0001 µM (active) | 0.00632 µM (active) |  | 0.00466 µM (active) |  |
| O=C1Nc2ccc(Br)cc2/C1=N/NC(=S)Nc1ccc(F)cc1 | 9.77 µM (inactive) | 9.84 µM (inactive) | 9.91 µM (inactive) | 7.24 µM (inactive) | 4.15 µM (inactive) | 2.58 µM (inactive) | 10.5 µM (inactive) | 4.78 µM (inactive) | 13.3 µM (inactive) | 3.53 µM (inactive) |  | 0.948 µM (active) | 4.9 µM (inactive) | 3.69 µM (inactive) |  | 12 µM (inactive) | 12.6 µM (inactive) | 3.94 µM (inactive) | 1.48 µM (inactive) | 2.26 µM (inactive) |
| COC(=O)C(CO)NC(=O)C(CSC(c1ccccc1)(c1ccccc1)c1ccccc1)NC(=O)OCc1ccccc1 (stereo unspecified) (Cbz-Cys(Trt)-Ser-OMe; configuration not given here) |  | 12.2 µM (inactive) | 12.1 µM (inactive) | 20.6 µM (inactive) | 13.3 µM (inactive) | 0.61 µM (active) | 15.5 µM (inactive) | 15.5 µM (inactive) | 13.6 µM (inactive) | 16.7 µM (inactive) | 0.36 µM (active) | 16.8 µM (inactive) | 20.7 µM (inactive) | 17.1 µM (inactive) | 19.4 µM (inactive) | 18.5 µM (inactive) | 13.8 µM (inactive) | 17 µM (inactive) | 16.8 µM (inactive) |  |
| COc1cc(/C=C/C(=O)O)ccc1O [FERULATE] | > 100 µM (inactive) | > 100 µM (inactive) | > 100 µM (inactive) | > 100 µM (inactive) | > 100 µM (inactive) | > 100 µM (inactive) | > 100 µM (inactive) | > 100 µM (inactive) | > 100 µM (inactive) | > 100 µM (inactive) | > 100 µM (inactive) | > 100 µM (inactive) | > 100 µM (inactive) | > 100 µM (inactive) | > 100 µM (inactive) | > 100 µM (inactive) | > 100 µM (inactive) | > 100 µM (inactive) | > 100 µM (inactive) |  |
